Data from US8802597B2, “Herbicidal pyrimidines” (E I du Pont de Nemours and Company, priority 2003, dated 2014).

Assays:
Format in all cases: in vivo
[1] = test system: bermudagrass (Cynodon dactylon); test: Test C pre/postemergence
Summary of the method: (§1)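 Greenhouse pot test: seeds treated preemergence, or plants at 2–18 cm (1- to 4-leaf stage) treated postemergence, with compound in non-phytotoxic solvent plus surfactant. Visual rating versus untreated controls after 12–14 days, scale 0 (no effect) to 100 (complete control); dash means not tested.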

[2] = test system: common ragweed (Ambrosia elatior); test: Test C pre/postemergence; conditions: for Ragweed plant response rating: scale 0 to 100 (0 no effect, 100 complete control)
Summary of the method: as §1

[3] = test system: goosegrass (Eleusine indica); test: Test C pre/postemergence; conditions: for Goosegrass plant response rating: scale 0 to 100 (0 no effect, 100 complete control)
Summary of the method: as §1

[4] = test system: pigweed (Amaranthus retroflexus); test: Test C pre/postemergence; conditions: for Pigweed plant response rating: scale 0 to 100 (0 no effect, 100 complete control)
Summary of the method: as §1

[5] = test system: velvetleaf (Abutilon theophrasti); test: Test C pre/postemergence; conditions: for Velvetleaf plant response rating: scale 0 to 100 (0 no effect, 100 complete control)
Summary of the method: as §1

[6] = test system: woolly cupgrass (Eriochloa villosa); test: Test C pre/postemergence; conditions: for Cupgrass, Woolly plant response rating: scale 0 to 100 (0 no effect, 100 complete control)
Summary of the method: as §1

[7] = test system: yellow nutsedge (Cyperus esculentus); test: Test C pre/postemergence; conditions: for Nutsedge, Yellow plant response rating: scale 0 to 100 (0 no effect, 100 complete control)
Summary of the method: as §1

[8] = test system: chickweed (Stellaria media); test: Test C postemergence; conditions: for Plant response rating, Chickweed: scale 0 to 100
From the text: Seeds or nutlets of plant species selected from bermudagrass (Cynodon dactylon), Surinam grass (Brachiaria decumbens), cocklebur (Xanthium strumarium), corn (Zea mays), crabgrass (Digitaria sanguinalis), woolly cupgrass (Eriochloa villosa), giant foxtail (Setaria faberii), goosegrass (Eleusine indica), johnsongrass (Sorghum halepense), kochia (Kochia scoparia), lambsquarters (Chenopodium album), morningglory (Ipomoea coccinea), eastern black nightshade (Solanum ptycanthum), yellow nutsedge (Cyperus esculentus), pigweed (Amaranthus retroflexus), common ragweed (Ambrosia elatior), soybean (Glycine max), common (oilseed) sunflower (Helianthus annuus), and velvetleaf (Abutilon theophrasti) were planted and treated preemergence with test chemicals formulated in a non-phytotoxic solvent mixture which included a surfactant.
At the same time, plants selected from these crop and weed species and also winter barley (Hordeum vulgare), blackgrass (Alopecurus myosuroides), canarygrass (Phalaris minor), chickweed (Stellaria media), downy brome (Bromus tectorum), green foxtail (Setaria viridis), Italian ryegrass (Lolium multiflorum), wheat (Triticum aestivum), wild oat (Avena fatua) and windgrass (Apera spica-venti) were treated with postemergence applications of some of the test chemicals formulated in the same manner. Plants ranged in height from 2 to 18 cm (1- to 4-leaf stage) for postemergence treatments. Plant species in the flooded paddy test consisted of rice (Oryza sativa), umbrella sedge (Cyperus difformis), duck salad (Heteranthera limosa) and barnyardgrass (Echinochloa crus-galli) grown to the 2-leaf stage for testing. Treated plants and controls were maintained in a greenhouse for 12 to 14 days, after which time all species were compared to controls and visually evaluated. Plant response ratings, summarized in Table C, are based on a scale of 0 to 100 where 0 is no effect and 100 is complete control. A dash (-) response means no test result.

[9] = Postemergence, 250 g ai/ha, scale 0 to 100
[10] = Preemergence, 31 g ai/ha, scale 0 to 100, 0 no effect, 100 complete control
[11] = Preemergence, 62 g ai/ha, scale 0 to 100, 0 no effect, 100 complete control
[12] = Preemergence, 125 g ai/ha, scale 0 to 100
[13] = Preemergence, 250 g ai/ha, scale 0 to 100

Structure (SMILES): CC(C)COC(=O)c1nc(C2CC2)nc(N)c1Br [Compound 17]
- Plant response rating (scale of 0 to 100), Bermudagrass ([1]; Postemergence, 31 g ai/ha): 0
- Bermudagrass plant response rating ([1]; Postemergence, 62 g ai/ha, scale 0 to 100 (0 no effect, 100 complete control)): 0
- Plant response rating, Bermudagrass [1, 9]: 0
- Plant response rating, Bermudagrass ([1]; Postemergence, 125 g ai/ha, scale 0 to 100): 0
- Plant response rating, Bermudagrass [1, 10]: 0
- Plant response rating, Bermudagrass [1, 11]: 0
- Plant response rating, Bermudagrass [1, 12]: 0
- Plant response rating, Bermudagrass [1, 13]: 0
- Plant response rating (scale of 0 to 100), Ragweed ([2]; Postemergence, 31 g ai/ha): 65
- Ragweed plant response rating ([2]; Postemergence, 62 g ai/ha): 85
- Ragweed plant response rating ([2]; Postemergence, 125 g ai/ha): 95
- Plant response rating, Ragweed [2, 9]: 95
- Plant response rating, Ragweed [2, 10]: 70
- Plant response rating, Ragweed [2, 11]: 80
- Plant response rating, Ragweed [2, 12]: 95
- Plant response rating, Ragweed [2, 13]: 100
- Plant response rating (scale of 0 to 100), Goosegrass ([3]; Postemergence, 31 g ai/ha): 0
- Goosegrass plant response rating ([3]; Postemergence, 62 g ai/ha): 0
- Goosegrass plant response rating ([3]; Postemergence, 125 g ai/ha): 0
- Plant response rating, Goosegrass [3, 9]: 0
- Plant response rating, Goosegrass [3, 10]: 0
- Plant response rating, Goosegrass [3, 11]: 0
- Plant response rating, Goosegrass [3, 12]: 0
- Plant response rating, Goosegrass [3, 13]: 0
- Plant response rating (scale of 0 to 100), Pigweed ([4]; Postemergence, 31 g ai/ha): 45
- Pigweed plant response rating ([4]; Postemergence, 62 g ai/ha): 65
- Pigweed plant response rating ([4]; Postemergence, 125 g ai/ha): 75
- Plant response rating, Pigweed [4, 9]: 95
- Plant response rating, Pigweed [4, 10]: 95
- Plant response rating, Pigweed [4, 11]: 100
- Plant response rating, Pigweed [4, 12]: 100
- Plant response rating, Pigweed [4, 13]: 100
- Plant response rating (scale of 0 to 100), Velvetleaf ([5]; Postemergence, 31 g ai/ha): 25
- Velvetleaf plant response rating ([5]; Postemergence, 62 g ai/ha): 50
- Velvetleaf plant response rating ([5]; Postemergence, 125 g ai/ha): 80
- Plant response rating, Velvetleaf [5, 9]: 95
- Plant response rating, Velvetleaf [5, 10]: 20
- Plant response rating, Velvetleaf [5, 11]: 80
- Plant response rating, Velvetleaf [5, 12]: 100
- Plant response rating, Velvetleaf [5, 13]: 100
- Plant response rating (scale of 0 to 100), Cupgrass, Woolly ([6]; Postemergence, 31 g ai/ha): 0
- Cupgrass, Woolly plant response rating ([6]; Postemergence, 62 g ai/ha): 0
- Cupgrass, Woolly plant response rating ([6]; Postemergence, 125 g ai/ha): 0
- Plant response rating, Cupgrass, Woolly [6, 9]: 20
- Plant response rating, Cupgrass, Woolly [6, 10]: 0
- Plant response rating, Cupgrass, Woolly [6, 11]: 0
- Plant response rating, Cupgrass, Woolly [6, 12]: 20
- Plant response rating, Cupgrass, Woolly [6, 13]: 85
- Plant response rating (scale of 0 to 100), Nutsedge, Yellow ([7]; Postemergence, 31 g ai/ha): 0
- Nutsedge, Yellow plant response rating ([7]; Postemergence, 62 g ai/ha): 0
- Nutsedge, Yellow plant response rating ([7]; Postemergence, 125 g ai/ha): 0
- Plant response rating, Nutsedge, Yellow [7, 9]: 0
- Plant response rating, Nutsedge, Yellow [7, 10]: 0
- Plant response rating, Nutsedge, Yellow [7, 11]: 0
- Plant response rating, Nutsedge, Yellow [7, 12]: 0
- Plant response rating, Nutsedge, Yellow [7, 13]: 0
- Plant response rating (scale of 0 to 100), Chickweed ([8]; 31 g ai/ha): 0
- Chickweed plant response rating ([8]; 62 g ai/ha, scale 0 to 100 (0 no effect, 100 complete control)): 0
- Plant response rating, Chickweed ([8]; 125 g ai/ha): 55
- Plant response rating, Chickweed ([8]; 250 g ai/ha): 85
